# From the supplement of paper PMC10307832
# Compound: CC1(C)CNc2cc(NC(=O)c3cccnc3NCc3ccncc3)ccc21 [Motesanib] + O=C(CCCCCCC(=O)Nc1ccccc1)NO [Vorinostat] (partner 1 µM)
# Assay: relative viability (nuclei count vs DMSO), 5 days (fraction); higher = more cells survive
# Conditions: first compound 1 µM
# Procedure, shortened: (§1)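 After 5 days of treatment, lung cancer cells in 1536-well plates were fixed and stained in a single step (final 0.05% Triton X-100, 1% formaldehyde, 1 ug/ml Hoechst) and their nuclei counted on 4× images. Treatment had been applied by pin tool the day after seeding as one drug alone or as a fixed anchor-drug dose with five library-drug doses (not always all listed) in √10 steps. Relative viability is the nuclei count of treated wells divided by that of vehicle wells, and values are medians of duplicate plates.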
row,Cell Line,relative viability
1,NCI-H647,0.894
2,CAL-12T,0.86
3,NCI-H1651,0.581
4,EPLC-272H,0.477
5,NCI-H2228,0.612
6,NCI-H1355,0.593
7,NCI-H3122,1
8,NCI-H1437,0.852
9,NCI-H1755,0.747
10,NCI-H2023,0.723
11,HCC-15,0.877
12,NCI-H1793,0.757
13,PC-14,0.771
14,EKVX,0.867
15,LC-2-ad,0.709
16,NCI-H1944,0.537
17,NCI-H1975,0.652
18,RERF-LC-KJ,0.789
19,ABC-1,1.06

# Compound: C[C@@]1(C(=O)Nc2ccc(F)nc2)CCCN1c1nc(Nc2cc(C3CC3)n[nH]2)c2cccn2n1 + Cc1cc(Nc2cc(N3CCN(C)CC3)nc(Sc3ccc(NC(=O)C4CC4)cc3)n2)n[nH]1 [Tozasertib] (partner 0.1 µM)
# Assay: as above
# Conditions: first compound 0.04 µM
# Procedure, shortened: as §1
row,Cell Line,relative viability
1,LCLC-97TM1,0.122
2,NCI-H2009,0.779
3,A-427,0.234
4,NCI-H441,0.496
5,NCI-H661,0.37
6,NCI-H1734,0.234
7,NCI-H460,0.525
8,NCI-H2347,0.606
9,SK-LU-1,0.282
10,NCI-H1395,0.783
11,201T,0.827
12,NCI-H1915,0.473
13,HCC-827,0.443
14,LXF-289,0.167
15,NCI-H23,0.382
16,NCI-H647,0.543
17,CAL-12T,0.249

row,Cell Line,relative viability
1,NCI-H1651,0.639
2,EPLC-272H,0.182
3,NCI-H2228,0.258
4,NCI-H1355,0.551
5,NCI-H3122,0.373
6,NCI-H1437,0.382
7,NCI-H1755,0.558
8,NCI-H2023,0.337
9,HCC-15,0.403
10,NCI-H1793,0.631
11,PC-14,0.572
12,EKVX,0.363
13,LC-2-ad,0.403
14,NCI-H1944,0.251
15,NCI-H1975,0.682
16,RERF-LC-KJ,0.544
17,ABC-1,0.2

# Same assay, conditions: first compound 0.1265 µM
row,Cell Line,relative viability
1,LCLC-97TM1,0.103
2,NCI-H2009,0.693
3,A-427,0.192
4,NCI-H441,0.403
5,NCI-H661,0.345
6,NCI-H1734,0.246
7,NCI-H460,0.487
8,NCI-H2347,0.581
9,SK-LU-1,0.318
10,NCI-H1395,0.741
11,201T,0.709
12,NCI-H1915,0.418
13,HCC-827,0.491
14,LXF-289,0.121
15,NCI-H23,0.269
16,NCI-H647,0.217
17,CAL-12T,0.27

row,Cell Line,relative viability
1,NCI-H1651,0.633
2,NCI-H2228,0.248
3,NCI-H1355,0.438
4,NCI-H3122,0.541
5,NCI-H1437,0.309
6,NCI-H1755,0.528
7,NCI-H2023,0.31
8,HCC-15,0.337
9,NCI-H1793,0.283
10,PC-14,0.587
11,EKVX,0.349
12,LC-2-ad,0.393
13,NCI-H1944,0.239
14,NCI-H1975,0.646
15,RERF-LC-KJ,0.506
16,ABC-1,0.128

# Same assay, conditions: first compound 0.4 µM
row,Cell Line,relative viability
1,LCLC-97TM1,0.0881
2,NCI-H2009,0.598
3,A-427,0.173
4,NCI-H441,0.349
5,NCI-H661,0.369
6,NCI-H1734,0.26
7,NCI-H460,0.26
8,NCI-H2347,0.512
9,SK-LU-1,0.233
10,NCI-H1395,0.74
11,201T,0.431
12,NCI-H1915,0.407
13,HCC-827,0.373
14,LXF-289,0.14
15,NCI-H23,0.316
16,NCI-H647,0.159
17,CAL-12T,0.275

row,Cell Line,relative viability
1,NCI-H1651,0.449
2,EPLC-272H,0.178
3,NCI-H2228,0.235
4,NCI-H1355,0.323
5,NCI-H3122,0.219
6,NCI-H1437,0.221
7,NCI-H1755,0.472
8,NCI-H2023,0.174
9,HCC-15,0.119
10,PC-14,0.515
11,EKVX,0.259
12,LC-2-ad,0.288
13,NCI-H1944,0.203
14,NCI-H1975,0.513
15,RERF-LC-KJ,0.33
16,ABC-1,0.184

# Same assay, conditions: first compound 1.265 µM
row,Cell Line,relative viability
1,LCLC-97TM1,0.126
2,NCI-H2009,0.519
3,A-427,0.198
4,NCI-H441,0.369
5,NCI-H661,0.338
6,NCI-H1734,0.242
7,NCI-H460,0.136
8,NCI-H2347,0.502
9,SK-LU-1,0.259
10,NCI-H1395,0.61
11,201T,0.863
12,NCI-H1915,0.415
13,HCC-827,0.42
14,LXF-289,0.14
15,NCI-H23,0.516
16,NCI-H647,0.123
17,CAL-12T,0.189

row,Cell Line,relative viability
1,NCI-H1651,0.537
2,EPLC-272H,0.287
3,NCI-H2228,0.178
4,NCI-H1355,0.526
5,NCI-H3122,0.306
6,NCI-H1437,0.238
7,NCI-H1755,0.545
8,NCI-H2023,0.118
9,HCC-15,0.169
10,NCI-H1793,0.789
11,PC-14,0.464
12,EKVX,0.28
13,LC-2-ad,0.296
14,NCI-H1944,0.245
15,NCI-H1975,0.316
16,RERF-LC-KJ,0.236
17,ABC-1,0.165

# Compound: CC1(C)CNc2cc(NC(=O)c3cccnc3NCc3ccncc3)ccc21 [Motesanib] + CCNC(=O)c1noc(-c2cc(C(C)C)c(O)cc2O)c1-c1ccc(CN2CCOCC2)cc1 [Luminespib] (partner 0.01 µM)
# Assay: as above
# Conditions: first compound 0.01 µM
# Procedure, shortened: as §1
row,Cell Line,relative viability
1,LCLC-97TM1,0.635
2,NCI-H2009,1.01
3,A-427,0.872
4,NCI-H441,0.274
5,NCI-H661,0.912
6,NCI-H1734,0.161
7,NCI-H460,0.0344
